From ChEMBL document CHEMBL1131857, “Quinolizidinyl derivatives of 5,11-dihydro-6H-pyrido[2,3-b][1,4]benzodiazepin-6-one as ligands for muscarinic receptors” (Bioorg Med Chem Lett, 1999)

Legend:
[1] = target: Muscarinic acetylcholine receptor M3 (Rattus norvegicus, UniProt P08483); experiment: Displacement of [3H]methylscopolamine binding to muscarinic M3 receptor in submaxillary salivary glands of rats.; assay type: tissue-based, Salivary gland
[2] = target: T1, Muscarinic acetylcholine receptor M1 (Rattus norvegicus, UniProt P08482); experiment: Displacement of [3H]pirenzepine binding to muscarinic M1 receptor in brain cortex of rat.; assay type: tissue-based
T1 sequence (P08482 whole entry): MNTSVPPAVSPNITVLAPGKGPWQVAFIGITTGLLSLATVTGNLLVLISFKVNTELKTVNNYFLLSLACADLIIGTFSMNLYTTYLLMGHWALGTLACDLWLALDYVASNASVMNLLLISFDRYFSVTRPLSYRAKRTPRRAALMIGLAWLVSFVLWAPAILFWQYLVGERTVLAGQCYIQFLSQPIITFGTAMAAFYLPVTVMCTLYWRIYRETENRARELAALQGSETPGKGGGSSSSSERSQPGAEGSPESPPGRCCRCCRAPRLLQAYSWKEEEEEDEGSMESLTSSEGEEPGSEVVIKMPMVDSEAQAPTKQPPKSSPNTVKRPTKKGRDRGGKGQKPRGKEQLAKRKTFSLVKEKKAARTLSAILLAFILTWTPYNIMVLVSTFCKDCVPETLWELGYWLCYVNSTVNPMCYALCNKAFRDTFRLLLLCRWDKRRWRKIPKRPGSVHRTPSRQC

[3] = target: T2, Muscarinic acetylcholine receptor M2 (Rattus norvegicus, UniProt P10980); experiment: Displacement of [3H]methylscopolamine binding to muscarinic M2 receptor in rat heart.
T2 sequence (P10980 whole entry): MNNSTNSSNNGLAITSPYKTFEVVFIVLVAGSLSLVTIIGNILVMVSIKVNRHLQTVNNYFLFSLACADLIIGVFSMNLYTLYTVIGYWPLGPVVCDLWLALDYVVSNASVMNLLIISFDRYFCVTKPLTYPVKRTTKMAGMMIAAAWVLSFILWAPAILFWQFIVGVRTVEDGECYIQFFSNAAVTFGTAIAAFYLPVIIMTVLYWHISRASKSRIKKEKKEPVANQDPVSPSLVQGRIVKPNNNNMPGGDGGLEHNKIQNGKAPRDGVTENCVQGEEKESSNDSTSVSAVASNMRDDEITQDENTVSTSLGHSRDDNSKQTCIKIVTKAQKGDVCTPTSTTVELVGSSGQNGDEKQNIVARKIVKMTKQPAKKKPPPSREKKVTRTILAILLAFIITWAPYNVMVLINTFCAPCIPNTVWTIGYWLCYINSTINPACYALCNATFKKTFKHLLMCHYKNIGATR

Chain of Muscarinic acetylcholine receptor M3 (P08483 whole entry): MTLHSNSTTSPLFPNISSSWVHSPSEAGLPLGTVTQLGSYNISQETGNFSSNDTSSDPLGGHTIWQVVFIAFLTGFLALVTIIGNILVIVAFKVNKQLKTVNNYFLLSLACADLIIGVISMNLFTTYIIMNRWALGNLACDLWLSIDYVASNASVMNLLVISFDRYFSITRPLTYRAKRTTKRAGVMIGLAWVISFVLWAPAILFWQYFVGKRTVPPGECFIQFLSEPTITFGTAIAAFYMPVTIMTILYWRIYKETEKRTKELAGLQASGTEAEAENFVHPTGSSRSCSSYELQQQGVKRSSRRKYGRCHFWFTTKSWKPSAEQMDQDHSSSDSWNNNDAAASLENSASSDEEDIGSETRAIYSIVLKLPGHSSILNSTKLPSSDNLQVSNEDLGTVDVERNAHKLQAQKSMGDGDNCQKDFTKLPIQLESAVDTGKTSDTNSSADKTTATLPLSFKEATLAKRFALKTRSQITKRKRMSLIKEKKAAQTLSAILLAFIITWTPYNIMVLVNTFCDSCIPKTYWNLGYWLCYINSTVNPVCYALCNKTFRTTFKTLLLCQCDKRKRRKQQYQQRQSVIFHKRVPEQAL

Row | SMILES | IC50 [1] | IC50 [2] | IC50 [3]
1 | O=C1Nc2cccnc2N(C(=O)CSCC2CCCN3CCCCC23)c2ccccc21 (centres undefined) | 0.76 µM | 0.01 µM | 0.76 µM
2 | Cc1cc(C(=O)c2ccccc2)ccc1NC(=O)CC1CCCN2CCCC[C@H]12 (some centres undefined) | 1.3 µM | 0.008 µM | 2.4 µM
3 | O=C1c2ccccc2-n2c(nc3cccnc32)CN1C[C@@H]1CCCN2CCCC[C@H]12 | > 10 µM | 1.2 µM | 12 µM

Second part, the compound after the results:

Row | IC50 [1] | IC50 [2] | IC50 [3] | SMILES
4 | 3.5 µM | 0.04 µM | 1.9 µM | O=C1Nc2cccnc2N(C(=O)C[C@H]2CCCN3CCCCC23)c2ccccc21 (some centres undefined)
5 | > 10 µM | 0.65 µM | 6.8 µM | O=C1Nc2ccccc2N(C(=O)CC2CCCN3CCCCC23)c2ncccc21 (centres undefined)
6 | > 10 µM | 0.11 µM | 6 µM | O=C1Nc2cccnc2N(C(=O)C[C@@H]2CCCN3CCCCC23)c2ccccc21 (some centres undefined)
7 | 0.8 µM | 0.028 µM | 1 µM | O=C1Nc2cccnc2N(C(=O)CNCC2CCCN3CCCCC23)c2ccccc21 (centres undefined)
8 | 0.76 µM | 0.01 µM | 0.76 µM | O=C1Nc2cccnc2N(C(=S)CC2CCCN3CCCC[C@@H]23)c2ccccc21 (some centres undefined)
